# The supplement of paper PMC10307832
# Legend:
# Assay in all cases: relative viability (nuclei count vs DMSO), 5 days (fraction); higher = more cells survive
# NCI-H661 = test system: NCI-H661
# Method in brief: (§1)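 A single step with final 0.05% Triton X-100, 1% formaldehyde and 1 ug/ml Hoechst fixed the cells and stained nuclei 5 days after treatment. Lung cancer cell lines in 1536-well plates had been treated by pin tool the day after seeding with one drug alone or a fixed anchor-drug dose plus five library-drug doses (not always all listed) in √10 steps, and nuclei were counted on 4× images. Relative viability is the ratio of nuclei in treated wells to nuclei in vehicle wells, taken as the median of duplicate plates.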
# PC-14 = test system: PC-14
# Method in brief: as §1
# ChaGo-K-1 = test system: ChaGo-K-1
# Method in brief: as §1
# RERF-LC-KJ = test system: RERF-LC-KJ
# Method in brief: as §1
# NCI-H23 = test system: NCI-H23
# Method in brief: as §1
# NCI-H2126 = test system: NCI-H2126
# Method in brief: as §1
# LCLC-97TM1 = test system: LCLC-97TM1
# Method in brief: as §1
# HCC-78 = test system: HCC-78
# Method in brief: as §1
# NCI-H647 = test system: NCI-H647
# Method in brief: as §1
# NCI-H2347 = test system: NCI-H2347
# Method in brief: as §1
# NCI-H1666 = test system: NCI-H1666
# Method in brief: as §1
# NCI-H2405 = test system: NCI-H2405
# Method in brief: as §1
# EPLC-272H = test system: EPLC-272H
# Method in brief: as §1
# HCC-827 = test system: HCC-827
# Method in brief: as §1
# NCI-H1915 = test system: NCI-H1915
# Method in brief: as §1
# NCI-H522 = test system: NCI-H522
# Method in brief: as §1
# NCI-H520 = test system: NCI-H520
# Method in brief: as §1
# NCI-H650 = test system: NCI-H650
# Method in brief: as §1
# H3255 = test system: H3255
# Method in brief: as §1
# 201T = test system: 201T
# Method in brief: as §1
# NCI-H322M = test system: NCI-H322M
# Method in brief: as §1
# COR-L 105 = test system: COR-L 105
# Method in brief: as §1
# LC-2-ad = test system: LC-2-ad
# Method in brief: as §1
# NCI-H2087 = test system: NCI-H2087
# Method in brief: as §1
compound,measurement,setting,value
C[C@@H]1CN(CC(=O)Nc2ccc3c(c2)Cc2cccc(-c4cc(=O)cc(N5CCOCC5)o4)c2S3)C[C@H](C)O1 + Nc1nc2[nH]cc(CCc3ccc(C(=O)N[C@@H](CCC(=O)O)C(=O)O)cc3)c2c(=O)[nH]1 [Pemetrexed] (partner 0.2 µM),relative viability,NCI-H661; first compound 0.04 µM,0.969
same,relative viability,NCI-H661; first compound 0.1265 µM,0.904
same,relative viability,NCI-H661; first compound 0.4 µM,0.899
same,relative viability,NCI-H661; first compound 4 µM,0.894
same,relative viability,PC-14; first compound 0.04 µM,0.119
same,relative viability,PC-14; first compound 0.1265 µM,0.141
same,relative viability,PC-14; first compound 0.4 µM,0.127
same,relative viability,PC-14; first compound 4 µM,0.116
same,relative viability,ChaGo-K-1; first compound 0.04 µM,0.24
same,relative viability,ChaGo-K-1; first compound 0.1265 µM,0.245
same,relative viability,ChaGo-K-1; first compound 0.4 µM,0.252
same,relative viability,ChaGo-K-1; first compound 4 µM,0.226
same,relative viability,RERF-LC-KJ; first compound 0.04 µM,0.521
same,relative viability,RERF-LC-KJ; first compound 0.1265 µM,0.465
same,relative viability,RERF-LC-KJ; first compound 0.4 µM,0.461
same,relative viability,RERF-LC-KJ; first compound 4 µM,0.443
same,relative viability,NCI-H23; first compound 0.04 µM,0.685
same,relative viability,NCI-H23; first compound 0.1265 µM,0.696
same,relative viability,NCI-H23; first compound 0.4 µM,0.617
same,relative viability,NCI-H23; first compound 4 µM,0.521
same,relative viability,NCI-H2126; first compound 0.04 µM,0.668
same,relative viability,NCI-H2126; first compound 0.1265 µM,0.657
same,relative viability,NCI-H2126; first compound 0.4 µM,0.77
same,relative viability,NCI-H2126; first compound 4 µM,0.695
same,relative viability,LCLC-97TM1; first compound 0.1265 µM,0.192
same,relative viability,LCLC-97TM1; first compound 0.4 µM,0.183
same,relative viability,LCLC-97TM1; first compound 4 µM,0.17
same,relative viability,HCC-78; first compound 0.04 µM,0.809
same,relative viability,HCC-78; first compound 0.1265 µM,0.84
same,relative viability,HCC-78; first compound 0.4 µM,0.889
same,relative viability,HCC-78; first compound 4 µM,0.917
same,relative viability,NCI-H647; first compound 0.04 µM,0.19
same,relative viability,NCI-H647; first compound 0.1265 µM,0.154
same,relative viability,NCI-H647; first compound 0.4 µM,0.102
same,relative viability,NCI-H647; first compound 4 µM,0.155
same,relative viability,NCI-H2347; first compound 0.04 µM,0.413
same,relative viability,NCI-H2347; first compound 0.1265 µM,0.408
same,relative viability,NCI-H2347; first compound 0.4 µM,0.413
same,relative viability,NCI-H2347; first compound 4 µM,0.381
same,relative viability,NCI-H1666; first compound 0.04 µM,0.905
same,relative viability,NCI-H1666; first compound 0.1265 µM,0.837
same,relative viability,NCI-H1666; first compound 0.4 µM,0.845
same,relative viability,NCI-H1666; first compound 4 µM,0.843
same,relative viability,NCI-H2405; first compound 0.04 µM,1.11
same,relative viability,NCI-H2405; first compound 0.1265 µM,1.01
same,relative viability,NCI-H2405; first compound 0.4 µM,1.04
same,relative viability,NCI-H2405; first compound 4 µM,1.03
same,relative viability,EPLC-272H; first compound 0.04 µM,0.311
same,relative viability,EPLC-272H; first compound 0.1265 µM,0.371
same,relative viability,EPLC-272H; first compound 0.4 µM,0.313
same,relative viability,EPLC-272H; first compound 4 µM,0.269
same,relative viability,HCC-827; first compound 0.04 µM,0.253
same,relative viability,HCC-827; first compound 0.1265 µM,0.247
same,relative viability,HCC-827; first compound 0.4 µM,0.247
same,relative viability,HCC-827; first compound 4 µM,0.3
same,relative viability,NCI-H1915; first compound 0.04 µM,0.478
same,relative viability,NCI-H1915; first compound 0.1265 µM,0.426
same,relative viability,NCI-H1915; first compound 0.4 µM,0.413
same,relative viability,NCI-H1915; first compound 4 µM,0.358
same,relative viability,NCI-H522; first compound 0.04 µM,0.691
same,relative viability,NCI-H522; first compound 0.1265 µM,0.89
same,relative viability,NCI-H522; first compound 0.4 µM,1.11
same,relative viability,NCI-H522; first compound 4 µM,1.11
same,relative viability,NCI-H520; first compound 0.04 µM,0.844
same,relative viability,NCI-H520; first compound 0.1265 µM,0.666
same,relative viability,NCI-H520; first compound 0.4 µM,0.534
same,relative viability,NCI-H520; first compound 4 µM,0.492
same,relative viability,NCI-H650; first compound 0.04 µM,0.925
same,relative viability,NCI-H650; first compound 0.1265 µM,0.866
same,relative viability,NCI-H650; first compound 0.4 µM,0.943
same,relative viability,NCI-H650; first compound 4 µM,0.812
same,relative viability,H3255; first compound 0.04 µM,0.539
same,relative viability,H3255; first compound 0.1265 µM,0.522
same,relative viability,H3255; first compound 0.4 µM,0.482
same,relative viability,H3255; first compound 4 µM,0.489
same,relative viability,201T; first compound 0.04 µM,0.329
same,relative viability,201T; first compound 0.1265 µM,0.319
same,relative viability,201T; first compound 0.4 µM,0.295
same,relative viability,201T; first compound 4 µM,0.314
same,relative viability,NCI-H322M; first compound 0.04 µM,0.597
same,relative viability,NCI-H322M; first compound 0.1265 µM,0.607
same,relative viability,NCI-H322M; first compound 0.4 µM,0.649
same,relative viability,NCI-H322M; first compound 4 µM,0.657
same,relative viability,COR-L 105; first compound 0.04 µM,1.15
same,relative viability,COR-L 105; first compound 0.1265 µM,1.07
same,relative viability,COR-L 105; first compound 0.4 µM,1.19
same,relative viability,COR-L 105; first compound 4 µM,1.14
same,relative viability,LC-2-ad; first compound 0.04 µM,0.272
same,relative viability,LC-2-ad; first compound 0.1265 µM,0.248
same,relative viability,LC-2-ad; first compound 0.4 µM,0.291
same,relative viability,LC-2-ad; first compound 4 µM,0.249
same,relative viability,NCI-H2087; first compound 0.04 µM,0.676
same,relative viability,NCI-H2087; first compound 0.1265 µM,0.668
same,relative viability,NCI-H2087; first compound 0.4 µM,0.677
same,relative viability,NCI-H2087; first compound 4 µM,0.621
